Assay [1] has as its target Beta-1 adrenergic receptor (Rattus norvegicus, UniProt P18090).
Assay [2] deals with 5-hydroxytryptamine receptor 1B (Rattus norvegicus, UniProt P28564).
Assay [3] addresses Beta-2 adrenergic receptor (Rattus norvegicus, UniProt P10608).

The Ki is a dissociation constant, usually derived from enzyme kinetics or from competition with a known ligand. High values mean weaker binding, low ones tighter binding.

Bounds are passed on as bounds.

Chain of 5-hydroxytryptamine receptor 1B (P28564 whole entry): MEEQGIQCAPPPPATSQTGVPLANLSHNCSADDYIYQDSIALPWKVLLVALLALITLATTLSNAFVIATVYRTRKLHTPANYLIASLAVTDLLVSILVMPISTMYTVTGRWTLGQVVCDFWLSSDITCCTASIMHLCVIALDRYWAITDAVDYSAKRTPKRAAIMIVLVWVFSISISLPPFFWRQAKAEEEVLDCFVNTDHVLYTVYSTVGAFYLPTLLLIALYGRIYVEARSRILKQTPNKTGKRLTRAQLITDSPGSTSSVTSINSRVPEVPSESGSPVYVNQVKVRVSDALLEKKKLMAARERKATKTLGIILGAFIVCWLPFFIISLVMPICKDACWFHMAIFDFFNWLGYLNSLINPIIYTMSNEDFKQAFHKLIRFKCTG
Chain of Beta-2 adrenergic receptor (P10608 whole entry): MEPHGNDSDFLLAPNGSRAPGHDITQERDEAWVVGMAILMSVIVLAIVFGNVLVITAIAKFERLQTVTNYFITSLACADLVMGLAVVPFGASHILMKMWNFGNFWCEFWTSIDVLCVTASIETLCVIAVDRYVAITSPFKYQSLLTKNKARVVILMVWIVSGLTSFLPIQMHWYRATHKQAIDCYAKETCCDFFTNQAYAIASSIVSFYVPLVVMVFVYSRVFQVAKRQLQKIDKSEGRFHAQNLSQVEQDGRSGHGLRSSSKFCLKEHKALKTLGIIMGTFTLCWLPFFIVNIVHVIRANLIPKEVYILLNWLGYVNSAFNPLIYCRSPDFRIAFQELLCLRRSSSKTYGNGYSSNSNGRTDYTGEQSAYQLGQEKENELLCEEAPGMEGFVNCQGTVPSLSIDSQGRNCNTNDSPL
Chain of Beta-1 adrenergic receptor (P18090 whole entry): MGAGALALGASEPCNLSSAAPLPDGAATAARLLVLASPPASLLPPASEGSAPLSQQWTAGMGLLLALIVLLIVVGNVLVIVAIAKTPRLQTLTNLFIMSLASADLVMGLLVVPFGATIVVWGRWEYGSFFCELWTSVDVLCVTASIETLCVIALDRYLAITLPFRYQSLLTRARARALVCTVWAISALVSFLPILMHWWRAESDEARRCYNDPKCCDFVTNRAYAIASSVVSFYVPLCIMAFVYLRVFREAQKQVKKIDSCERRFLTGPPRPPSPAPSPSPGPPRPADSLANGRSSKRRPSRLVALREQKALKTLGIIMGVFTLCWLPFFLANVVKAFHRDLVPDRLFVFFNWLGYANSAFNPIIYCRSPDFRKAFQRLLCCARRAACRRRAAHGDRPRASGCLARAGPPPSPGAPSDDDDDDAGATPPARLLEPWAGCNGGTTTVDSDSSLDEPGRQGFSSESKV

For the molecule `CC(C)CNCC(O)COc1cccc2ccccc12` (stereo not drawn), the Ki amounted to 2.82 nM in assay [1], 56.2 nM in assay [2] and 2.45 nM in assay [3]. On to `CC(C)NCC(O)COc1cccc2[nH]ccc12` (stereo not drawn) [LB-46], for which the affinity in assay [1] corresponds to a Ki of 0.66 nM.

For `COc1ccccc1OCCNCC(O)c1ccc(C)c(S(N)(=O)=O)c1` (stereo not drawn) [CAS_93633-92-2], the Ki came out at 4.37 nM in assay [1], 1290 nM in assay [2] and 13.2 nM in assay [3]. Molecule `COCCc1ccc(OC[C@@H](O)CNC(C)C)cc1` [l-Metoprolol] yielded an inhibitory constant (Ki) in assay [2] of more than 10000 nM. For the molecule `C=CCOc1ccccc1OCC(O)CNC(C)C` (stereo not drawn), the Ki in assay [1] worked out at 7.76 nM; in assay [2], 174 nM; in assay [3], 9.77 nM. In assay [2], `CC(C)NC[C@H](O)COc1ccc(CCOCC2CC2)cc1` [[(2S)-3-{4-[2-(cyclopropylmethoxy)ethyl]phenoxy}-2-hydroxypropyl](propan-2-yl)amine] displayed a Ki of more than 10000 nM.

`CC(CCc1ccccc1)NCC(O)c1ccc(O)c(C(N)=O)c1` (stereo not drawn) [2-hydroxy-5-{1-hydroxy-2-[(4-phenylbutan-2-yl)amino]ethyl}benzamide]: the Ki in assay [1] amounted to 12 nM; in assay [2], 2000 nM.

Take `Cc1ccc(OC[C@@H](O)[C@H](C)NC(C)C)c2c1CCC2` [ICI 118,551]: the Ki in assay [1] amounted to 195 nM; in assay [2] it was 3890 nM. In turn, `CC(C)NCC(O)c1ccc(NS(C)(=O)=O)cc1` (racemic) [Sotalol,(-)] came in with a Ki in assay [2] of more than 10000 nM. Consider `CC(C)(C)NCC(O)CSc1nc(-c2ccc(C(N)=O)s2)cs1` (stereo not drawn) [CAS_52560-77-7], for which the Ki is 0.18 nM in assay [1], 10.7 nM in assay [2] and 0.55 nM in assay [3]. Turning to `CC(=O)Nc1ccc(OCC(O)CNC(C)C)cc1` (stereo not drawn) [Practolol,(-)], the Ki in assay [1] was 245 nM; in assay [2], more than 10000 nM. Consider `COCCc1ccc(OCC(O)CNC(C)C)cc1` (stereo not drawn) [Betalok], for which, in assay [2], the Ki is more than 10000 nM. On the same count and under the same terms, as for `COCCc1ccc(OC[C@H](O)CNC(C)C)cc1` [d-Metoprolol], the figure is more than 10000 nM; as for `C=CCc1ccccc1OC[C@@H](O)CNC(C)C` [ALPRENOLOL,(-)], 70.8 nM.

Take `COc1ccc(OC)c([C@@H](O)[C@H](C)NC(C)(C)C)c1` [CAS_1937-89-9]: the Ki in assay [1] is 3720 nM; in assay [2] it was more than 10000 nM; in assay [3], 468 nM.

The values above are taken from BindingDB's records for doi:10.1254/jjp.52.195 (Niigata College of Pharmacy, 1990).
